The structures appear in SMILES notation.

The target in assay [1] is T1, OfHex1 (Ostrinia furnacalis, UniProt Q06GJ0, E328A).
T1 construct: pPIC9, secreted from Pichia pastoris GS115; HisTrap and Mono Q purified; dimer with N-terminal zincin-like and C-terminal catalytic domain (residues 207-594)
T1 sequence (Q06GJ0 23-594 E328A): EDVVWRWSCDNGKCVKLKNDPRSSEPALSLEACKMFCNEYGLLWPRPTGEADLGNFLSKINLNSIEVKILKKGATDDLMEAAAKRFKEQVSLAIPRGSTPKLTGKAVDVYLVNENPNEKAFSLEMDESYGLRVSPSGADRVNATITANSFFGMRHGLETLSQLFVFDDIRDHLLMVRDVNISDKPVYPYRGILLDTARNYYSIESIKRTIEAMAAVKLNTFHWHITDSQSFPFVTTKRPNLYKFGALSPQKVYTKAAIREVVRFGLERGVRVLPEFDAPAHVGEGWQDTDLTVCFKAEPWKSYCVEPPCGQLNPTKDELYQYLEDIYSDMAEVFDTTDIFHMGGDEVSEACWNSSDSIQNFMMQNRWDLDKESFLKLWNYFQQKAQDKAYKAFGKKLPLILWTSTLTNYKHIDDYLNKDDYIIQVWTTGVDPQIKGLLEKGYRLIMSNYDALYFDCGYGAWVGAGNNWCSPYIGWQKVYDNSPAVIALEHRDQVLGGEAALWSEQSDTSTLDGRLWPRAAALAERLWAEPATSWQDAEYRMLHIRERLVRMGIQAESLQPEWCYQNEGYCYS
In words: inhibition of 4MU-β-GlcNAc hydrolysis, Dixon plot. In kind it is biochemical. The text has this: (§1) inhibition of 4MU-β-GlcNAc hydrolysis, Dixon plot on OfHex1

Assay [2] has as its target T2, OfHex1 (Ostrinia furnacalis, UniProt Q06GJ0, E328Q).
T2 construct: pPIC9, secreted from Pichia pastoris GS115; HisTrap and Mono Q purified; dimer with N-terminal zincin-like and C-terminal catalytic domain (residues 207-594)
T2 sequence (Q06GJ0 23-594 E328Q): T1 sequence (Q06GJ0 23-594 E328A)
The experiment in a line: inhibition of 4MU-β-GlcNAc hydrolysis, Dixon plot. In kind it is biochemical.
Excerpt: as §1

Take `CC(=O)N[C@@H]1[C@@H](O)[C@H](O[C@@H]2O[C@H](CO)[C@@H](O[C@@H]3O[C@H](CO)[C@@H](O[C@@H]4O[C@H](CO)[C@@H](O)[C@H](O)[C@H]4[N+](C)(C)C)[C@H](O)[C@H]3NC(C)=O)[C@H](O)[C@H]2NC(C)=O)[C@@H](CO)O[C@H]1O` [TMG-chitotriomycin]: the values for the Ki on OfHex1 [1] and on OfHex1 [2] were 2.71 µM and 0.101 µM, respectively.

The record behind these values is paper PMC3531433, “Structural Insights into Cellulolytic and Chitinolytic Enzymes Revealing Crucial Residues of Insect β-N-acetyl-D-hexosaminidase” (PLoS ONE, 2012).
